We go through two molecules from patent US12258561B2, “Compositions and methods to promote bone formation and their uses including for the treatment of cancer” (THE RESEARCH FOUNDATION FOR THE STATE UNIVERSITY OF NEW YORK, priority 2014, dated 2025).

“Also recorded” adds a separate entry of the source.

The test system of assay [1] is MSC cultures induced to become osteoblasts. Briefly: Osteogenesis: mineral formation in MSC with osteoinduction media (alizarin red-S staining). The class given is cell-based, human. The text has this:
Methods: Human Bone Marrow was Collected from Consenting Adult Patients undergoing either an elective primary proximal femoral total hip arthroplasty or elective primary distal femoral total knee arthroplasty (n=6, mean age 65) as a part of an IRB approved study. Human MSC were derived from the adherent fraction of cells derived from each whole bone marrow aspirate collected, while the monocyte population was collected from the non-adherent fraction of the bone marrow. The monocyte fraction was enriched through sub-culture with 100-ng/mL recombinant human macrophage colony-stimulating factor (MCSF; Wyeth). In parallel experiments described below, the femurs from 3-week (n=10) and 16-week (n=20) old male mice were collected and then the bone marrow was flushed from the femur according to the following: A 21-gauge needle was inserted into the femoral intramedular canal after the removal of the proximal and distal ends of the femur. Media was then carefully passed through the proximal end of the femur, which forced the bone marrow to pass out of the bone. Finally, the bone marrow pellet was mechanically disassociated using an 18-gauge needle and then passed through a 70-μm mesh filter. These whole bone marrow aspirates were used to generate osteoclasts. Cells were maintained in Dulbecco's Modification of Eagle's Media (DMEM) containing 10% fetal calf serum (v/v) and 1% penicillin-streptomycin-glutamine (PSG; Cellgro, Mediatech). […] The responsible IACUC committee approved all of the animal studies described in this work.
Osteogenesis: Osteogenic potential in MSC was assayed by chemically inducing mineral formation. MSC from at least three human patients were seeded at 5×10^3 cells per well and allowed to become confluent and woven prior to the addition of osteo-induction media. Induction media consisted of DMEM containing 20% FCS (v/v) and 1% PSG supplemented with 25-μg/mL of acscorbic-2-phosphate (Sigma), 100-nM dexamethasone (Sigma) and the following dosing regimen of β-glycerophosphate (BGP; Sigma): 1× media change with 5-mM BGP, 1× media change with 10-mM BGP and 1× media change with 20-mM of BGP. Met5-ligand (0-, [5-μM] 2.87-, or [50-μM] 28.7-μg; Sigma), naloxone (0-, 400-fg, 400-pg, 400-ng, 400-μg; Sigma) or naltrexone (0-, 378-fg, 378-pg, 378-ng, 378-μg; Sigma) was added as follows: 1) 1×, with the first addition of osteo-induction media, 2) 2×, with the first and second addition of osteo-induction media and 3) with each post-induction media change. […] After the appearance of mineral nodules, cells were fixed with 70% ice-cold EtOH (Sigma) and then stained using 40-mM alizarin red-S (pH 4.2, Sigma). Osteogenesis experiments were repeated at least twice for each patient.

Assay [2] has as its system unicortical defect in mouse tibia. The experiment in a line: Opioid antagonist containing collagen implant in unicortical defect model, microCT. The class given is in vivo, C57BL/6 mice. As to conditions: 7 days after surgery. The text has this:
Implantation of Opioid Antagonist Containing Collagen Implant into a Unicortical Defect Model: Male 5-week old C57BL/6 mice (n=5 per treatment group for a total of 25 total animals) were used in this study. […] Unicortical defects were surgically administered through a small incision (approximately 3-mm) made just below the knee joint, located on the medial side of the tibia just below the tibial tuberosity on the tibial crest. In 5-weeks old male mice, the physeal plate is clearly visible and the drill bit was placed approximately 1-mm below this point. The drill-bit produces a unicortical defect with dimensions 300-μm diameter×1-mm depth. […] In parallel, a separate group of animals served as non-surgical controls. Mice were euthanized 7-days after surgery, hind limbs were collected and tibias were prepared for micro-CT (μCT) analysis.
(§1) MicroCT Analysis of Unicortical Defects: High-resolution images of the tibia were acquired with μCT imaging system (μT40; Scanco Medical). Tibias were scanned at 45-keV with an isotropic voxel size of 12-μm. An analysis region was selected from axial sections to include the entire unicortical defect bounded by the endosteal cortical wall. The volume corrected bone volume (bone volume/total volume; By/Tv), trabecular number (TbN) and trabecular thickness (TbTh) were calculated using the Scanco software.

Assay [3] concerns monocytes cultured to become osteoclasts. Briefly: TRAP staining and assay of osteoclast number. It is filed as cell-based, human, mouse. The protocol:
TRAP Staining and the Assay of Osteoclast Number: Osteoclasts were derived from either an enriched population of human monocytes or from mouse non-enriched whole bone marrow aspirates. Three human patient bone marrow samples were assayed in parallel with samples collected from 3-week (n=10) mouse bone marrow. The monocyte fraction was stimulated to become osteoclasts by culturing 1×10^6 cells with 25-ng/mL of MCSF and 25-ng/mL of recombinant human or mouse RANK-ligand (R&D Systems) in the presence of the met5-ligand ([5-μM] 2.87-, or [50-μM] 28.7-μg; Sigma), naloxone (400-ng or 400-μg; Sigma) or naltrexone (378-ng or 378-μg; Sigma). Osteoclasts were stained with tartrate resistant acid phosphatase (TRAP; Sigma Leukocyte Acid Phosphatase Kit 387-A) and counted when cells stained TRAP-positive and had at least three nuclei. Estimates of osteoclast number were obtained by Cavalieri sampling and a modification of the fractionator technique.

Assay [4] relates to SaO52 osteosarcoma tumor cells. Briefly: Assay of cell number (MTT), osteosarcoma cells. It is filed as cell-based. The text has this: (§2) Methods: Human bone marrow was collected from consenting adult patients undergoing either an elective primary proximal femoral total hip arthroplasty or elective primary distal femoral total knee arthroplasty (n=6, mean age 65) as a part of an IRB approved study. Human MSC were derived from the adherent fraction of whole bone marrow aspirates. Ewing's sarcoma tumor cells (RDES, Hs822 and Hs863) and SaOS2 osteosarcoma tumor cells were obtained from ATCC. Cells were maintained in Dulbecco's Modification of Eagle's Media (DMEM) containing 10% fetal calf serum (v/v) and 1% penicillin-streptomycin-glutamine (PSG; Cellgro, Mediatech).
(§3) Assay of Cell Number: Following the addition of 1-mM naloxone or 1-mM naltrexone, viable cell number was determined with the MTT assay. After 72-hours and 120-hours, MTT (5 mg/ml (w/v), Sigma) was added to each well, incubated for 2-hours, after which the cells lysed with 500-μl of DMSO (Sigma). MTT was measured at 570-nm and the effects of therapy on cell proliferation were determined by normalizing treated wells relative to mean values from non-treated wells: Fold change in cell number=100*[treated cells optical density/mean control optical density].

Assay [5] deals with RDES Ewing's sarcoma of bone tumor cells. Briefly: Assay of cell number (MTT), RDES cells. It is filed as cell-based.
Source text: as §2, §3

Assay [6] relates to Hs822t Ewing's sarcoma of bone tumor cells. Briefly: Assay of cell number (MTT), Hs822t cells. It is filed as cell-based.
Source text: as §2, §3

The subject of assay [7] is unicortical defect in mouse tibia. Briefly: Unicortical defect model, direct injection, microCT. The class given is in vivo, C57BL/6 mice. As to conditions: naloxone 1-mM or met5 50-μM. How it is done: Unicortical Defect Model: Male 3-week old C57BL/6 mice (n=5 per treatment group) were injected with met5, naloxone or naltrexone following the creation of a unicortical defect. Briefly, a small incision (approximately 3-mm) was made just below the knee joint, located on the medial side of the tibia just below the tibial tuberosity on the tibial crest. In young animals the physeal plate is clearly visible and the drill bit was placed approximately 1-mm below this point. The drill-bit produces a unicortical defect with dimensions 300-μm diameter×1-mm depth. A Hamilton Neuros RN 10-μL syringe with a 33-gauge blunt tip needle was used to inject 2-μL of met5 (28.7-μg), naloxone (400-μg) or naltrexone (378-μg) resuspended in saline directly into the unicortical defect at a rate no faster than approximately 0.1-μL per second. The left-limb tibias served as contra-lateral surgical controls, in which animals received a unicortical defect and 2-μL of saline was injected. Mice were euthanized 5-days after surgery, hind limbs were collected and tibias were fixed for immunofluorescence, TRAP staining and OTC associated bone growth.
as §1

Setting [8] is: collagen implant, 25-ng BMP2, 1-mM naltrexone or 1-mM naloxone.
[9] abbreviates: 50-μM met5 with collagen implant.

With `O=C1CC[C@@]2(O)[C@H]3Cc4ccc(O)c5c4[C@@]2(CCN3CC2CC2)[C@H]1O5` [naltrexone], in assay [1] (between 1-μM and 1-mM with osteoinduction media), the “mineral accumulation (red staining)” value is reported as “increased mineral, but to a lesser extent than naloxone”. In assay [2] (collagen implant), the “Bv/Tv relative to non-surgical controls” value was “increased relative to non-surgical controls” and the “trabecular thickness (TbTh) relative to the control non-surgical group” value is listed as “increased within the defect significantly”. Also, in assay [2] (collagen implant, 1-mM), the “Bv/Tv compared with the BMP2 treated group” value is “no significant difference”. Besides, in assay [2] (setting [8]), the “increase in Bv/Tv relative to the PBS treated group” value is recorded as 39.2% and the “increase in Bv/Tv relative to the surgical control group” value came to 63.5%. In assay [3] (1-mM), the “osteoclast number (TRAP staining)” value is “reduced osteoclast number substantially”. The “osteoclast number (TRAP staining)” value in assay [3] (1-μM) is recorded as “did not significantly reduce osteoclast number”. The “SaO52 osteosarcoma cell number relative to control cultures” value in assay [4] (1-mM, seventy-two hours) was “decreased significantly”. The “RDES tumor cell number relative to control cultures” value in assay [5] (1-mM, seventy-two hours) is “decreased significantly”. Besides, the “Hs822t tumor cell number relative to control cultures” value in assay [6] (1-mM, seventy-two hours) is listed as “decreased relative to the control cultures”.
On to “Tyr-Gly-Gly-Phe-Met (YGGFM; printed: Tyr-Gly-Gly-Phe-Met) [met5, opioid growth factor (OGF or met-5 enkephalin), the native ligand for the OGFR]”, for which the mineral accumulation entry was “no effect on mineral formation in culture; also recorded: no effect on mineral accumulation” in assay [1] (5-μM met5 added to osteoinduction media) and “no effect on mineral formation in culture; also recorded: decreased mineral accumulation slightly” in assay [1] (50-μM met5 added to osteoinduction media). In addition, in assay [2] (setting [9]), the “Bv/Tv greater than the non-surgical control group” value is “approximately 37%”. Besides, the “fracture healing (Bv/Tv) compared with the surgical control group” value in assay [2] (setting [9]) is given as “not significantly different”. Also, the “trabecular thickness (TbTh) relative to the control non-surgical group” value in assay [2] (collagen implant) is “increased within the defect significantly”. In assay [3] (met5, relative to control osteoclast cultures), the “osteoclast number (TRAP staining)” value is given as “unaffected”. The bone healing entry in assay [7] is “no effect”. In assay [4] (met5), the “SaO52 osteosarcoma cell number” value is reported as “had not effect on cell number”. Further, the “RDES tumor cell number” value in assay [5] (met5) was “no effect”. Moreover, the “Hs822t tumor cell number” value in assay [6] (50-μM of met5) is recorded as “significant increase”.
